From patent US5292737A, “N,N'-bis(sulfonamido)-2-amino-4-iminonaphthalen-1-ones and N,N'-bis(amido)-2-amino-4-iminonaphthalen-1-ones” (Sphinx Pharmaceuticals Corporation, priority 1992, dated 1994)

Assays:
[1] = test system: normal human epidermal keratinocyte (NHEK) cells; assay: Human Keratinocyte Inhibition (3H TdR Assay); type: cell-based; settings: 24 h incubation, 3H-thymidine
human neutrophils = assay: Neutrophil Superoxide Anion (O2) Release Assay, PMA-stimulated; type: cell-based; settings: PMA-stimulated human neutrophils; read-out: Neutrophil Superoxide Release IC50
Text: Phorbol-12,13-myristate acetate (PMA) stimulates O2 production in human neutrophils which in turn reduces cytochrome C. Reducing cytochrome C increases absorbance and the change in optical density (OD) is proportional to the amount of O2 produced by PMA stimulation. Inhibition is expressed as an IC50 value and is the amount of test compound that will inhibit fifty percent of the PMA-stimulated respiratory outburst, i.e. O2^31 production (Lherer et al. (1981) J. Clinical lnvest. 68:1314; Roberts et al. (1982) J. Immunological Methods 49:193).
Human donor blood in 0.38% Sodium Citrate was centrifuged for 10 minutes at 160 ×g at room temperature. Platelet-rich plasma was removed leaving the buffy coat and the red cell-enriched fraction. Saline with 0.38% Sodium Citrate was added to this fraction up to the original blood volume. The enriched blood sample was diluted 1:1 (v:v) with 3% dextran T500 (Pharmacia) in normal saline and placed in a 60 cc syringe, inverted over a beaker and allowed to settle 30 minutes at room temperature.
Leukocyte-enriched plasma was removed from the syringe, placed into 50 ml polypropylene conical centrifuge tubes and underlaid with 15-20 ml Lymphocyte Separation Medium (LSM Organon Technica). The tubes were centrifuged for 40 minutes at 500×g at room temperature. The plasma, buffy coat and LSM were aspirated off the pellets which contained red blood cells and neutrophils.
The pellets were vortexed and 10 ml ice-cold 0.2% NaCl was added to lyse the red blood cells while vortexing again for 10 seconds. Ice-cold 1.6% NaCl was added while vortexing for 10 seconds. The cells were combined from multiple tubes, centrifuged 10 min at 400×g at 4° C. This red cell lysis was repeated and the resulting neutrophil pellet was washed once in Reaction HBSS (GIBCO, HBSS with Ca^++ and Mg^++,.238% HEPES, 0.1% dextrose, 0.1% RIA grade bovine serum albumin, PH 7.2). The cells were resuspended in 1/5 the original blood volume with Reaction HBSS, counted and adjusted to 4.0×10^6 cells/ml at 4° C.
Duplicate samples of neutrophils were tested in 12×75 mm polypropylene tubes containing 0.25 ml of the neutrophil suspension. Cytochrome C mix (0.25 ml, 6.0 mg/ml cytochrome C type IV (Sigma) plus 1200 U/ml bovine liver catalase (Sigma) in Reaction HBSS described above) was added. PMA was added at 2×the final concentration in 0.5 ml of Reaction HBSS. PMA final test concentration were 0.0, 0.3, 9.0, 27.0, and 81.0 ng/ml. The tubes were vortexed and incubated for 10 minutes at 37° C. with shaking. After chilling for 5 minutes at 4° C. and centrifuging for 10 minutes at 4° C., 550×g, 0.5 ml of supernatant was removed from each tube. Normal saline (0.5 ml) was added to each 0.5 ml sample of supernatant and the absorbance of each sample was read at 550 nm on a spectrophotometer (Shimadzu). The PMA concentration which gives nearly maximal stimulation of superoxide release was determined.
The test samples of neutrophils were prepared as in the PMA dose response through addition of cytochrome C mix. Then 0.4 ml of Reaction HBSS as a control or test agent at 2.5×final test concentration was added and the tubes were vortexed and incubated for 30 minutes at 37° C. with shaking. PMA (0.1 ml) was added at a 10× concentration of the final concentration determined above. The samples were incubated for 10 minutes at 37° C. with shaking, chilled for 5 minutes at 4° C., and then centrifuged for 5 minutes at 550×g at 4° C. The supernatant (0.5 ml) was diluted with 0.5 ml normal saline as above and the absorbance was then determined at 550 nm. The percent change was calculated as follows: [formula] D-sphingosine (Sigma) used as reference standard.
Human neutrophils were first isolated according to Lherer et al. ((1981) J. Clinical Invest. 68:1314) and then tested for stimulation of superoxide anion release with phorbol--12,13-myristate acetate (PMA) in a dose-dependent manner. […]

- IC50 (human neutrophils): 100 nM
SMILES: O=C1C(Nc2ccc(S(=O)(=O)NCc3ccccn3)cc2)=CC(=Nc2ccc(S(=O)(=O)NCc3ccccn3)cc2)c2ccccc21 [Compound 6n]
- IC50 [1]: 500 nM
